22 compounds from paper PMC11847391, “Synthesis and biological activities of 3-aminoimidazo[1,2-α]pyridine compounds” (BMC Chemistry, 2025) can be followed below.

The test system of series [1] is mouse Embryonic Fibroblast-1 cell line (MEF-1). Briefly: Cytotoxicity, Trypan blue exclusion test, normal MEF cells. Conditions: for IC50: normal cell line MEF, 24 h, Trypan blue exclusion, mean ± SD of two independent experiments. The series is classed as cell-based. As for the experimental part: (§1) The synthesized compounds were assessed for their cytotoxic effects on three different cancer cell lines: the MCF-7 human breast cancer cell line (ATCC number: HTB-22), the HT-29 human colorectal adenocarcinoma cell line [HTB-38; American Type Culture Collection (ATCC), Manassas, VA, USA], and the B16F10 murine melanoma cancer cell line [CRL-6475; American Type Culture Collection (ATCC), Manassas, VA, USA], as well as the normal cell line mouse Embryonic Fibroblast-1 cell line (MEF-1; ATCC CRL-2214). The cell line was cultivated in high-glucose Dulbecco’s Modified Eagle Medium (DMEM) that is supplemented with L-glutamine, phenol red (Fuji Film Wako, Osaka, Japan), 10% fetal bovine serum (FBS; G.E. Healthcare, Chicago, IL, USA), and 1% penicillin/streptomycin (P/S) (Nacalai Tesque, Kyoto, Japan). Exponentially growing cells (1 × 10^5 cells/well) were seeded in a 24-well plate with sterile-filtered DMEM medium at 37 °C under 5% CO2 and incubated overnight. The cells were then treated with different concentrations of test compounds (5, 10, 50, and 100 µg/mL) and incubated for 24 h in a humidified atmosphere. After 24 h of incubation, viable cells were counted in each well using the Trypan blue exclusion test. All compounds were initially dissolved in DMSO, and the final concentration of DMSO was less than 1% in all of the considered concentrations of the applied compounds. The IC50 values from at least two independent experiments were compared with the control and expressed as the mean ± SD. The analysis of two groups was performed using the student t-test, and P-values < 0.05 were statistically significant.

The test system of series [2] is HT-29 human colorectal adenocarcinoma cell line. Put plainly: Cytotoxicity, Trypan blue exclusion test, HT-29. It counts as cell-based. Conditions: for IC50: HT-29, 24 h, Trypan blue exclusion, mean ± SD of two independent experiments. As for the experimental part: as §1
Series [3] has as its system B16F10 murine melanoma cancer cell line. Briefly: Cytotoxicity, Trypan blue exclusion test, B16F10. The series is classed as cell-based. Conditions: for IC50: B16F10, 24 h, Trypan blue exclusion, mean ± SD of two independent experiments. As for the experimental part:
as §1

The test system of series [4] is MCF-7 human breast cancer cell line. Put plainly: Cytotoxicity, Trypan blue exclusion test, MCF-7. It counts as cell-based. The note with it: for IC50: MCF-7, 24 h, Trypan blue exclusion, mean ± SD of two independent experiments. As for the experimental part:
as §1

The test system of series [5] is B16F10 cell line. Put plainly: Morphological changes of treated B16F10 cells. The series is classed as cell-based, murine. Conditions: high concentrations (≥ 50 µg/ml), versus untreated cancer cells. The source says:
(§2) In comparison to the control (untreated cancer cells), the three cancer cell lines (MCF-7, HT-29, and B16F10) were investigated for morphological changes after being treated with the synthesized compounds 9–19.

Series [6] deals with HT-29 cell line. Briefly: Morphological changes of treated HT-29 cells. The series is classed as cell-based, human. The note with it: high concentrations (≥ 50 µg/ml), versus untreated cancer cells.
Text: as §2

On to `COc1ccc(-c2nc3ccccn3c2Nc2ccc(Cl)cc2)c(OC)c1OC` [C00001], for which the half-maximal inhibitory concentration (IC50) in series [1], in series [2], in series [3] and in series [4] was over 200 µM each time.

In the case of `COc1ccc(-c2nc3ccccn3c2Nc2ccc(Cl)cc2)cc1OCc1ccccc1` [C00002], the IC50 in series [1] was 18.5 ± 0.33 µM; in series [2], over 200 µM; in series [3] it was over 200 µM; in series [4], over 200 µM.

Consider `Clc1ccc(Nc2c(-c3c[nH]c4ccccc34)nc3ccccn23)cc1` [C00003], for which the half-maximal inhibitory concentration (IC50) is 1.84 ± 0.83 µM in series [1], 18.3 ± 1.22 µM in series [2], 39.2 ± 1.84 µM in series [3] and 20.47 ± 0.1 µM in series [4].

With `Clc1ccc(Nc2c(-c3ccco3)nc3ccccn23)cc1` [C00005], the half-inhibitory concentration (IC50) in series [1] was found to be 32.93 ± 0.09 µM; in series [2], 48.3 ± 0.53 µM; in series [3], 197 ± 14.4 µM; in series [4], 66.5 ± 37.9 µM.

`Cc1cccc(-c2nc3ccccn3c2Nc2ccc(Cl)cc2)c1` [C00006]: in series [4], the half-inhibitory concentration (IC50) is 195 ± 19.9 µM.

For the compound `COc1cccc(-c2nc3ccccn3c2Nc2ccc(Cl)cc2)c1OC` [C00007], the half-inhibitory concentration (IC50) in series [1], in series [2], in series [3] and in series [4] was over 200 µM each time.

`Clc1ccc(Nc2c(-c3ccc4ccccc4c3)nc3ccccn23)cc1` [C00008]: the IC50 in series [1] and in series [3] was over 200 µM throughout.

Regarding `Clc1ccc(Nc2c(-c3ccsc3)nc3ccccn23)cc1` [C00009], the IC50 in series [1], in series [2], in series [3] and in series [4] was over 200 µM each time.

Take `Fc1ccc(-c2nc3ccccn3c2Nc2ccc(Cl)cc2)c(F)c1` [C00010]: the half-maximal inhibitory concentration (IC50) in series [1] was 16.31 ± 0.08 µM; in series [2], 10.1 ± 0.7 µM; in series [3] it was 14.39 ± 0.04 µM.

With `FC(F)(F)c1ccc(-c2nc3ccccn3c2Nc2ccc(Cl)cc2)cc1` [C00011], the IC50 was 63.9 ± 2.33 µM in series [1], 85.5 ± 18.8 µM in series [2], 195 ± 15.3 µM in series [3] and over 200 µM in series [4].

For the compound `COc1ccc(-c2nc3ccccn3c2Nc2ccc(Cl)cc2)c(OC)c1OC` [Compound 9, N-(4-chlorophenyl)−2-(2,3,4-trimethoxyphenyl)imidazo[1,2-a]pyridin-3-amine], the “Cytotoxicity against HT-29 (in words)” value in series [2] is on record as “ineffective”. In series [3], the “Cytotoxicity against B16F10 (in words)” value is “ineffective”. The “Cytotoxicity against MCF-7 (in words)” value in series [4] is “ineffective”.

`COc1ccc(-c2nc3ccccn3c2Nc2ccc(Cl)cc2)cc1OCc1ccccc1` [Compound 10, 2-(3-(Benzyloxy)−4-methoxyphenyl)-N-(4-chlorophenyl)imidazo[1,2-a]pyridin-3-amine]: the “Cytotoxicity against HT-29 (in words)” value in series [2] is reported as “ineffective”. Further, in series [3], the “Cytotoxicity against B16F10 (in words)” value is recorded as “ineffective”. Besides, the “Cytotoxicity against MCF-7 (in words)” value in series [4] is on record as “ineffective”.

Turning to `Clc1ccc(Nc2c(-c3c[nH]c4ccccc34)nc3ccccn23)cc1` [Compound 11, N-(4-chlorophenyl)−2-(1 H-indol-3-yl)imidazo[1,2-a]pyridin-3-amine], the IC50 in series [1] (Mus musculus, MEF) is 1.84 ± 0.83 µM; in series [1], under 1.84 µM; in series [2] (Homo sapiens), 18.3 ± 1.22 µM; in series [3] (Mus musculus, B16-F10, 24 h), 39.2 ± 1.84 µM; in series [4] (Homo sapiens, MCF7, 24 h), 20.47 ± 0.1 µM.

`O=[N+]([O-])c1ccccc1-c1nc2ccccn2c1Nc1ccc(Cl)cc1` [Compound 12, N-(4-chlorophenyl)−2-(2-nitrophenyl)imidazo[1,2-a]pyridin-3-amine]: the “Morphological changes, B16F10” value in series [5] is “shrinkage and lost their original form”. In addition, in series [1] (MEF IC50 versus HT-29 IC50), the “Cytotoxicity against normal cells relative to HT-29 (fold lower)” value is “tenfold”. Besides, the IC50 in series [1] (Mus musculus, MEF) was found to be 40.5 ± 4.34 µM; in series [2] (Homo sapiens), 4.15 ± 2.93 µM; in series [3] (Mus musculus, B16-F10, 24 h) it was 64.8 ± 15.8 µM; in series [4] (Homo sapiens, MCF7, 24 h) it was 30.9 ± 14.4 µM. For the same compound, in series [6], the “Morphological changes, HT-29” value was “shrinkage and lost their original form”.

As for `Clc1ccc(Nc2c(-c3ccco3)nc3ccccn23)cc1` [Compound 13, N-(4-chlorophenyl)−2-(furan-2-yl)imidazo[1,2-a]pyridin-3-amine], the IC50 in series [1] (Mus musculus, MEF) was 32.93 ± 0.09 µM; in series [2], over 45 µM; in series [2] (Homo sapiens), 48.3 ± 0.53 µM; in series [4] (Homo sapiens, MCF7, 24 h), 66.5 ± 37.9 µM; in series [4] it was over 45 µM.

For `Cc1cccc(-c2nc3ccccn3c2Nc2ccc(Cl)cc2)c1` [Compound 14, N-(4-chlorophenyl)−2-(m-tolyl)imidazo[1,2-a]pyridin-3-amine], the “Morphological changes, B16F10” value in series [5] is “shrinkage and lost their original form”. The IC50 in series [1] (Mus musculus, MEF) was over 200 µM; in series [2] (Homo sapiens), 44.45 ± 0.15 µM; in series [3] (Mus musculus, B16-F10, 24 h), 21.8 ± 0.81 µM. For the same compound, the “Morphological changes, HT-29” value in series [6] is “shrinkage and lost their original form”.

For the compound `COc1cccc(-c2nc3ccccn3c2Nc2ccc(Cl)cc2)c1OC` [Compound 15, N-(4-chlorophenyl)−2-(2,3-dimethoxyphenyl)imidazo[1,2-a]pyridin-3-amine], in series [2], the “Cytotoxicity against HT-29 (in words)” value was “ineffective”. The “Cytotoxicity against B16F10 (in words)” value in series [3] is recorded as “ineffective”. Further, the “Cytotoxicity against MCF-7 (in words)” value in series [4] is given as “ineffective”.

With `Clc1ccc(Nc2c(-c3ccc4ccccc4c3)nc3ccccn23)cc1` [Compound 16, N-(4-chlorophenyl)−2-(naphthalen-2-yl)imidazo[1,2-a]pyridin-3-amine], the IC50 in series [2] (Homo sapiens) worked out at 93.08 ± 0.61 µM; in series [4] (Homo sapiens, MCF7, 24 h), 84 ± 3.37 µM. Moreover, the “Cytotoxicity against B16F10 (in words)” value in series [3] is “inactive”.

On to `Clc1ccc(Nc2c(-c3ccsc3)nc3ccccn23)cc1` [Compound 17, N-(4-chlorophenyl)−2-(thiophen-3-yl)imidazo[1,2-a]pyridin-3-amine], for which the “Cytotoxicity against HT-29 (in words)” value in series [2] is on record as “ineffective”. Further, the “Cytotoxicity against B16F10 (in words)” value in series [3] is on record as “ineffective”. Also, in series [4], the “Cytotoxicity against MCF-7 (in words)” value is “ineffective”.

`Fc1ccc(-c2nc3ccccn3c2Nc2ccc(Cl)cc2)c(F)c1` [Compound 18, N-(4-chlorophenyl)−2-(2,4-difluorophenyl)imidazo[1,2-a]pyridin-3-amine]: the IC50 was 16.31 ± 0.08 µM in series [1] (Mus musculus, MEF); under 15 µM in series [2]; 10.1 ± 0.7 µM in series [2] (Homo sapiens); under 15 µM in series [3]; 14.39 ± 0.04 µM in series [3] (Mus musculus, B16-F10, 24 h); 14.8 ± 0.2 µM in series [4] (Homo sapiens, MCF7, 24 h). The compound also had a half-maximal inhibitory concentration (IC50) in series [4] of under 15 µM.

In the case of `FC(F)(F)c1ccc(-c2nc3ccccn3c2Nc2ccc(Cl)cc2)cc1` [Compound 19, N-(4-chlorophenyl)−2-(4-(trifluoromethyl)phenyl)imidazo[1,2-a]pyridin-3-amine], the IC50 in series [1] (Mus musculus, MEF) was 63.9 ± 2.33 µM; in series [2] (Homo sapiens), 85.5 ± 18.8 µM; in series [3] (Mus musculus, B16-F10, 24 h), at least 200 µM; in series [4] (Homo sapiens, MCF7, 24 h), at least 200 µM.

As to `CC(=O)O[C@H]1C(=O)[C@@]2(C)[C@H]([C@H](OC(=O)c3ccccc3)[C@]3(O)C[C@H](OC(=O)[C@H](O)[C@@H](NC(=O)c4ccccc4)c4ccccc4)C(C)=C1C3(C)C)[C@]1(OC(C)=O)CO[C@@H]1C[C@@H]2O` [Paclitaxel (Taxol), Paclitaxel, reference compound], the IC50 in series [1] (Mus musculus, MEF) is 17.2 µM; in series [2] (Homo sapiens), 0.0166 µM; in series [3] (Mus musculus, B16-F10, 24 h), 55.7 µM; in series [4] (Homo sapiens, MCF7, 24 h), 0.00834 µM.
